The values below are quoted from earlier work in publication PMC10544023, “Oxetanes in Drug Discovery Campaigns” (Journal of Medicinal Chemistry, 2023).

In general, IC50 refers to the concentration needed to halve the response being measured.

Series [1] relates to LRRK2. Also noted: method as in ref 49 = [49]; a Liang J.; Jakalian A.; Lambrecht M. J.; Larouche-Gauthier R.; Huestis M.; Ung M. U.; Wang X.; Yadav A.; Zbieg J. R.; Broccatelli F. Lactams as Cbl-b Inhibitors , WO Patent Appl. no. WO20221. The conditions noted are these: read-out: LRRK2 inhibitor IC50.
Series [2] has as its system PDGFRα D842V. Set-up: method as in ref 49 = [49]; a Liang J.; Jakalian A.; Lambrecht M. J.; Larouche-Gauthier R.; Huestis M.; Ung M. U.; Wang X.; Yadav A.; Zbieg J. R.; Broccatelli F. Lactams as Cbl-b Inhibitors , WO Patent Appl. no. WO20221.
Series [3] deals with KIT D816V. Set-up: method as in ref 49 = [49]; a Liang J.; Jakalian A.; Lambrecht M. J.; Larouche-Gauthier R.; Huestis M.; Ung M. U.; Wang X.; Yadav A.; Zbieg J. R.; Broccatelli F. Lactams as Cbl-b Inhibitors , WO Patent Appl. no. WO20221.
For series [4] the following is noted: amine nitrogen; ref 37a.
The test system of series [5] is hERG. Set-up: method as in PMID 24900569. The conditions noted are these: ref 37a.
The test system of series [6] is Cbl-b. Set-up: method as in ref 49 = [49]; a Liang J.; Jakalian A.; Lambrecht M. J.; Larouche-Gauthier R.; Huestis M.; Ung M. U.; Wang X.; Yadav A.; Zbieg J. R.; Broccatelli F. Lactams as Cbl-b Inhibitors , WO Patent Appl. no. WO20221. As to conditions: read-out: Cbl-b inhibitor IC50.
Series [7] has as its system c-KIT (V654A). Set-up: method as in ref 49 = [49]; a Liang J.; Jakalian A.; Lambrecht M. J.; Larouche-Gauthier R.; Huestis M.; Ung M. U.; Wang X.; Yadav A.; Zbieg J. R.; Broccatelli F. Lactams as Cbl-b Inhibitors , WO Patent Appl. no. WO20221.
For series [8], the system named is EZH2. Set-up: method as in ref 49 = [49]; a Liang J.; Jakalian A.; Lambrecht M. J.; Larouche-Gauthier R.; Huestis M.; Ung M. U.; Wang X.; Yadav A.; Zbieg J. R.; Broccatelli F. Lactams as Cbl-b Inhibitors , WO Patent Appl. no. WO20221. The conditions noted are these: read-out: EZH2 inhibitor IC50.
Series [9] deals with LRRK2 (WT). Set-up: method as in ref 49 = [49]; a Liang J.; Jakalian A.; Lambrecht M. J.; Larouche-Gauthier R.; Huestis M.; Ung M. U.; Wang X.; Yadav A.; Zbieg J. R.; Broccatelli F. Lactams as Cbl-b Inhibitors , WO Patent Appl. no. WO20221. As to conditions: read-out: LRRK2 inhibitor (WT) IC50.
Series [10] deals with rat. Also noted: method as in ref 33a = [33]; a Crawford J. J.; Zhang H. In ACS Symposium Series; American Chemical Society , 2019; Vol. 1332 , pp 239 – 266 . b For an overview of all clinical trials and further investigations, see: Drug Bank. The conditions noted are these: rat pilot study; ref 33a.
Series [11] relates to dog. Set-up: method as in ref 33a = [33]; a Crawford J. J.; Zhang H. In ACS Symposium Series; American Chemical Society , 2019; Vol. 1332 , pp 239 – 266 . b For an overview of all clinical trials and further investigations, see: Drug Bank. As to conditions: dog pilot study; ref 33a.
Series [12] relates to T- versus B-cells. Also noted: method as in PMID 32292557. The conditions noted are these: selectivity of T- versus B-cells; ref 35a.

The structures appear in SMILES notation.

With `O=C1NCCCOc2ccc3[nH]nc(c3c2)-c2cc(cc(N3CCC4(COC4)C3)c2)CO1`, the IC50 in [1] was below 10 nM.

For `CCN1CCN(c2ccc(Nc3nc(-c4ccc5cn[nH]c5c4)cn4ccnc34)cc2)CC1` [4-ethyl-piperazine], the “calcd pKaH” value (piperazine analogues of entospletinib, ref 35a) is 8.0.

As for `C[C@](N)(c1ccc(F)cc1)c1cnc(N2CCN(c3ncnn4cc(-c5cnn(CC6COC6)c5)cc34)CC2)nc1` [Bluprint Medicines WO 2020/210293 A1], the IC50 in series [2] and in series [3] was below 4.5 nM each time.

Regarding `C[C@H]1CN(C2COC2)CCN1c1ccc(Nc2cc(-c3ccnc(N4CCn5c(cc6c5CC(C)(C)C6)C4=O)c3CO)cn(C)c2=O)nc1` [Fenebrutinib, fenebrutinib], where the note is “piperazine ring”, the “pKaH (predicted)” value is 6.3.

Turning to `CCNC(=O)Nc1ccc(-c2nc3c(c(N4CCOC[C@@H]4C)n2)CCN(C2COC2)C3)cc1` [GDC-0349], in series [4], the pKaH is recorded as 5.0. In addition, in [5], the IC50 is above 100000 nM.

Take `CC(C)[C@@H]1CN(C)CCN1Cc1cc2c(c(C(F)(F)F)c1)CN(c1cc(C3(Cc4nncn4C)COC3)cc(OC3CCCC3)n1)C2=O` [Genentech WO 2022/169997 A1]: the IC50 in [6] was 5.5 nM.

Turning to `Cn1ncc(-c2ccc(CNc3cc(-c4cnc5cc(OCCN6CC7(COC7)C6)ccn45)ncn3)cc2)n1` [Merck WO 2021/013864 A1], the IC50 in series [7] is 3.3 nM.

In the case of `Cc1ccc2ccc(N[C@H]3CC[C@H](CNc4ncc(C(F)(F)C(=O)NC5COC5)cn4)CC3)nc2c1Cl` [Novartis WO 2022/033492 A1], the half-inhibitory concentration (IC50) in [8] is below 10 nM.

For the compound `C[C@H](C(F)F)n1cc(Nc2ncc3cc(C#N)n([C@H]4COC[C@@H]4C)c3n2)c(OC2COC2)n1` [Sanofi WO 2022/263472 A1], in series [9], the IC50 was 1 nM.

With `CN1CCN(c2ccc(Nc3cc(-c4cccc(N5CCc6c(sc7c6CC(C)(C)C7)C5=O)c4CO)cn(C)c3=O)nc2)CC1` [compound 4], the hepatotoxicity result in [10] and in series [11] was “high hepatotoxicity” each time.

In the case of `c1cn2cc(-c3ccc4cn[nH]c4c3)nc(Nc3ccc(N4CCN(C5COC5)CC4)cc3)c2n1` [oxetane on the 4-position], in [12], the T/B ratio is recorded as 10.
